These results are taken from publication PMC4643019, “Imaging Sites of Inhibition of Proteolysis in Pathomimetic Human Breast Cancer Cultures by Light-Activated Ruthenium Compound” (PLoS ONE, 2015).

In general, IC50 refers to the concentration at which inhibition is half-maximal.

Entries after “also recorded” stand apart in the source; their conditions may differ.

Data set [1] deals with cathepsin L. Set-up: method as in PMID 12437121. To be noted: cited from earlier work.
The conditions of data set [2]: not told; cited from earlier work.
The target in data set [3] is T1, CTSB purified from human liver (Homo sapiens, UniProt P07858).
T1 construct: CTSB purified from human liver was purchased from Athens Research & Technology; purchased Athens Research & Technology (Athens, GA, USA); host or cells: human liver (tissue-purified)
As to the kind of experiment: Cathepsin B activity assay with purified enzyme (Z-Arg-Arg-AMC). The data set is classed as biochemical. To be noted: uncaged compound 1; CTSB 10 nM, substrate 150 μM; read-out: IC50. As for the experimental part:
CTSB purified from human liver was purchased from Athens Research & Technology (Athens, GA, USA). The enzyme activity was determined from kinetic measurements performed by fluorimetric detection of the hydrolysis product AMC at 37°C for 30 min at one-minute intervals using a Tecan SpectraFluor Plus plate-reader. The excitation and emission wavelengths were 360 and 485 nm, respectively. The fluorescent substrate Z-Arg-Arg-AMC (Bachem, Torrance, CA, USA) was used at a final concentration of 150 μM.
The enzyme was activated for 15 minutes with activator buffer (100 μl) containing 5 mM EDTA, 10 mM DTT (pH 5.2) at 37°C. The sample (1 μl) was added and the reaction mixtures were conducted during 45 min under dark (no irradiation) and light (irradiation at 250 W, 395–750 nm) conditions with a tungsten halogen lamp and H2O filter on separate plates. For the experiments under dark conditions, room lights were off and in addition the plate was covered with aluminum foil (light protection); the other plate was exposed to visible light for the same time period. The irradiation wavelength was selected by placing a 395 long-pass filter between the lamp and the sample, along with a 10 cm water cell to absorb infrared light. After photolysis, the reaction was initiated by addition of 200 μl of assay buffer (0.6 mM CaCl2, 0.6 mM MgCl2, 25 mM piperazin-N-N‘-bis[2-ethanosulfonic acid] (disodium salt)), pH 7.3 containing 150 μM Z-Arg-Arg-AMC substrate solution. Enzyme concentration was 10 nM. The experiments were carried out in triplicate in 96-well flat bottom black plates at pH 6.0. Enzyme activities are expressed as a percentage, with 100% equal to activity in the absence of inhibitor. IC50 values were determined by plotting percent activity vs. log (inhibitor concentration).

The target of data set [4] is T2, CTSB activity in MDA-MB-231 cell lysates (Homo sapiens, UniProt P07858).
T2 construct: endogenous in cells; host or cells: MDA-MB-231 (ATCC) cell lysate
Put plainly: Inhibition of cellular cathepsin B activity in MDA-MB-231 cell lysates (Z-Arg-Arg-AMC). The format is biochemical. Particulars: uncaged compound 1; MDA-MB-231 lysate; read-out: IC50. As for the experimental part:
(§1) TNBC cell lines were originally purchased from American Type Culture Collection (Rockville, MD, USA) and authenticated using the STR PowerPlex 16 system (Promega). Cells were cultured in basal medium supplemented with 10% fetal bovine serum (MDA-MB-231, DMEM; Hs578T, DMEM + 10 μg/ml bovine insulin). To prepare cell lysates, cells were grown on 100 mm dishes to ~80% confluency, washed twice with PBS (phosphate buffered saline), scraped and lysed in SME buffer (250 mM sucrose, 25 mM MES, 1 mM EDTA, pH 6.5, and 0.1% Triton X-100) and then sonicated on ice three times for 10 sec each. CTSB activity was measured as previously described. Briefly, 50 μl of cell lysate was incubated with 300 μl of activator buffer (5 mM EDTA, 10 mM DTT (pH 5.2) at 37°C during 15 min. The sample (1 μl) was added to 100 μl of the activator buffer containing cell lysate and the reaction mixtures were conducted during 45 min under dark (no irradiation) and light (irradiation at 250 W, 395–750 nm) conditions for 45 min with a tungsten halogen lamp and H2O filter on separate plates as described above. The experiments were carried out in triplicate (on 96-well flat bottom black plates) at pH 6.0.

The target in data set [5] is T3, CTSB activity in Hs578T cell lysates (Homo sapiens, UniProt P07858).
T3 construct: endogenous in cells; host or cells: Hs578T (ATCC) cell lysate
As to the kind of experiment: Inhibition of cellular cathepsin B activity in Hs578T cell lysates (Z-Arg-Arg-AMC). The format is biochemical. Particulars: uncaged compound 1; Hs578T lysate; read-out: IC50. As to the method: as §1

The subject of data set [6] is MDA-MB-231 3D MAME cultures. As to the kind of experiment: Live-cell proteolysis assay (DQ-collagen IV) in 3D MAME cultures, MDA-MB-231. The data set is classed as cell-based, human. As to the method: (§2) Proteolytic cleavage of DQ-collagen IV substrate (Invitrogen, Carlsbad, CA, USA) by live TNBC cells was imaged in real time and quantified as previously described. Briefly, glass coverslips were coated with 50 μl of 16.4 mg/ml Cultrex^TM containing 25 μg/ml DQ-collagen IV and incubated for 15 min at 37°C to solidify. TNBC cells (1.0 x 10^4) were seeded onto coated glass coverslips and incubated for 60 min. Medium containing 2% Cultrex^TM was added to the cells. The sample was added every 48 h. […] Where indicated, assays were performed in the presence of CA074 and CA074Me (5 μM each) (Peptides International, Louisville, KY, USA), compound 1 or compound 2. For experiments with the caged inhibitor, cells were exposed to dark (no irradiation) and light (irradiation at 250 W, 395–750 nm) conditions for 45 min with a tungsten halogen lamp and H2O filter on separate plates. After 4 days of culture, optical sections through the entire depth of the 3D structures were acquired on a confocal microscope and, reconstructed in 3D using Volocity software. At the time of imaging cells were stained with CellTracker Orange and nuclei with Hoechst 33342. Volocity software was used to determine cellular boundaries in each confocal slice and generate a “cytoplasmic mask” as well as to count nuclei. The intensity of DQ-collagen IV degradation fragments per cell was quantified in the entire 3D volume. Degradation fragments were segmented into those present inside or surrounding the cells by using image arithmetic as we have previously described in detail.

For data set [7], the system named is Hs578T 3D MAME cultures. As to the kind of experiment: Live-cell proteolysis assay (DQ-collagen IV) in 3D MAME cultures, Hs578T. The data set is classed as cell-based, human. As to the method: as §2
A short description of data set [8]: Solubility (statement). The format is physicochemical.
For data set [9], the system named is recombinant human CTSB expressed in baculovirus. Details: method as in PMID 11741472. To be noted: cited from earlier work.

As to `CCCNC(=O)[C@H]1O[C@@H]1C(=O)N[C@H](C(=O)N1CCC[C@H]1C(=O)OC)[C@@H](C)CC` [CA074Me], the “inhibition of cathepsin L” value in data set [1] is listed as “inhibits”. Further, the cell permeability entry in [2] is “cell permeable”.

With `CCCNC(=O)[C@H]1O[C@@H]1C(=O)N[C@H](C(=O)N1CCC[C@H]1C(=O)O)[C@@H](C)CC` [CA074], in data set [1], the “inhibition of cathepsin L” value was “not”. Also, the cell permeability entry in data set [2] is reported as “non-cell permeable”.

Regarding `Cc1cccc(C[C@H](NC(=O)c2ccc(Cl)c(Cl)c2)C(=O)NCC#N)c1` [compound 1, (S)-3,4-dichloro-N-(1-((cyanomethyl)amino)-1-oxo-3-(m-tolyl)propan-2-yl)benzamide], the results for the IC50 in data set [3], in [4] and in [5] were 330 nM, 1540 nM and 910 nM, respectively. The “total degradation of DQ-collagen IV” value in [6] (MDA-MB-231, 4 days of culture, concentration of 1 not given) is recorded as “significantly less degradation of DQ-collagen IV; also recorded: significant reductions”; in [7] (4 days of culture, concentration of 1 not given), “significantly less degradation of DQ-collagen IV; also recorded: significant reductions”. The “pericellular proteolysis (DQ-collagen IV)” value in data set [6] (MDA-MB-231, 4 days, concentration of 1 not given) is “significant reductions”; in [7] (4 days, concentration of 1 not given), “significant reductions”. For the same molecule, the “solubility in H2O” value in data set [8] is listed as “low solubility”. In addition, the “inhibition of recombinant human CTSB” value in data set [9] is “potent, selective and reversible inhibitor”.

Take `CC#N.CC#N.F[P-](F)(F)(F)(F)F.F[P-](F)(F)(F)(F)F.[Ru+2].c1ccc(-c2ccccn2)nc1.c1ccc(-c2ccccn2)nc1` [compound 3, cis-[Ru(bpy)2(MeCN)2](PF6)2, reference compound]: the “inhibition of proteolysis (DQ-collagen IV)” value in data set [6] (MDA-MB-231, 1 μM, light vs. dark conditions, 4 days) is “did not inhibit proteolysis”; in data set [7] (1 μM, light vs. dark conditions, 4 days) it was “did not inhibit proteolysis”.
